Data: patent US5962516A, “Immunosuppressive compounds and methods” (priority 1999, dated 1999)
Structures can show the parent of a compound that is named as a salt.

Experiments:
[1] = system: heart transplant rejection; experiment: Cardiac allograft survival (heterotopic heart transplantation in rats); type: in vivo, rat (Brown Norway donors, Lewis recipients); details: for mean survival time of allograft / mean survival time compared with underivatized triptolide: i.p.; for mean survival time of allograft: day -1 to 14; for mean survival time compared with underivatized triptolide: equimolar doses (YM-273 0.40, YM-274 0.33, T10 0.25 mg/kg)
Source text: Treatment of transplantation rejection, in accordance with the invention, is illustrated for rejection of an allograft by the in vivo heart transplantation model used in Example 14. The method involves a well-characterized rat model system (Ono and Lindsey, 1969) in which a transplanted heart is attached to the abdominal great vessels of an allogeneic recipient animal, and the viability of the transplanted heart is gauged by the heart's ability to beat in the recipient animal.
In one study, the animals were administered by intraperitoneal injections, from one day preceding to 14 days following heart transplantation, either control solution (5% ethanol, 10 ml/kg), triptolide (designated as T10), or with two concentrations each of YM-273 and YM-274. There were three animals in each group, except for the control group in which five animals were used.
Heterotopic whole heart transplantation was performed according to the standard method (Ono and Lindsey, 1969). The donors (Brown Norway rats, 200-255 g, Charles River, Wilmington, Mass.) and recipients (Adult male Lewis rats, 225-275g, Charles River) were anesthetized with sodium pentobarbital (40 mg/kg). Following adequate donor anticoagulation using heparin, the heart graft was removed and stored at 4° C. in PhysioSol Irrigation Solution (Abbott Laboratories, N. Chicago, Ill.). The ascending aorta and pulmonary artery were transected, and the vena cava and pulmonary veins were ligated. […] The cold ischemic time of all the cardiac grafts was less than 45 minutes. Graft heartbeat was monitored by abdominal palpation. The period of functional graft survival was measured as the number of days during which cardiac graft contractions could be detected by abdominal palpation. Results were confirmed by direct visualization at laparotomy.
Heart transplant recipient animals prepared as described above (3-5 animals/group) were treated with (i) control solution (5% ethanol, 10 ml/kg), (ii) YM-273 at 0.10 mg/kg and 0.40 mg/kg (FIG. 5A), (iii) YM-274 at 0.084 and 0.33 mg/kg (FIG. 5B), and (iv) and T10 (triptolide) 0.25 mg/kg (FIG. 6). In addition to showing the results for T10, FIG. 6 repeats the results from FIGS. 5A-5B for YM-273 and YM-274 at 0.40 and 0.33 mg/kg, respectively, such that their concentrations were equimolar relative to T10. All compounds were administered intraperitoneally. Treatment started on the day prior to surgery and continuing daily until postoperative day 14, or until the end of allograft survival.

[2] = Cytotoxicity by MTT reduction reported with the IL-1 assay (Table I); type: cell-based; details: mouse, thymocytes, cytotoxic when toxicity greater than 25%
Description: Potential cytotoxicity of the test samples was assessed by the measurement of their effect on the reduction of MTT (3-[4,5-Dimethylthiazole-2-yl]-2,5-diphenyltetrazolium bromide) by cultured cells. MTT, a yellow-colored compound, is reduced by mitochondrial enzymes to form the purple crystalline reduction product formazane, providing an index of cellular respiration on viable cells as well as a sensitive assay for cytotoxicity (Mossmann, 1983).
The cytotoxicity was assessed in cultured human PBMC and mouse thymocytes. A stock solution of MTT (Sigma) at 5 mg/ml in phosphate buffered saline, pH 7.4, was prepared and stored in the dark at 4° C. PBMCs or thymocytes were cultured with various concentrations of test samples in flatbottom 96-well tissue culture plates (Costar) under the same conditions as those described above, but the stimulants (X-35 or IL-1+PHA) were replaced by appropriate medium. Untreated cells with medium alone and without the test samples were used as controls. After incubation for 21 hours, 25 μl of MTT solution was added to each well. After an additional three hours of incubation, the experiment was terminated by addition of a solution of 10% sodium dodecyl sulfate in 0.01 N HCl. Following overnight incubation at 37° C. to solubilize the formazane crystals, optical density was determined at 570-650 nm in microplate reader. […]

[3] = Stability in blood serum by TLC; type: in vitro ADME; details: rat serum, 37° C
Description: The stability of triptolide succinate in blood serum was determined as detailed in Example 10B. In this study, a solution of triptolide succinate (YM-262, free acid) in DMSO was mixed with rat serum and incubated at 37° C. The mixture was assayed periodically by thin layer chromatography (TLC) to follow the hydrolysis of the triptolide succinate over time.
A solution of triptolide succinate (free acid; YM-262) in DMSO was made at a concentration of 25 mg/ml, and 0.1 ml of this solution was mixed with 0.5 ml of rat serum. The mixture was incubated at 37° C. Aliquots of the mixture were taken at 1, 3, 5, 15, 45 minutes and 18 hours and analyzed by thin layer chromatography (TLC). The TLC plates were developed in 1:5 CH2 Cl2 /Et2 O. After development, the plates were treated with iodine vapor and examined under a UV lamp. Triptolide and triptolide succinate were used as reference compounds (Rf =0.60 and 0.45, respectively).

[4] = system: male fertility; experiment: Effect on fertility in male mice; type: in vivo, mouse (BDF1); details: for delay of time from cohabitation to birth / increase in time from cohabitation to birth: vs control
[5] = 0.03 mg/kg/day (so in the source) i.p.
[6] = 0.1 mg/kg/day (so in the source) i.p.

SMILES: CC(C)C12OC1C1OC13C1(C)CCC4=C(COC4=O)C1CC1OC13C2OC(=O)CCC(=O)O (stereo not shown) [YM-273, Triptolide Succinate Tris Salt]
- mean survival time of allograft ([1]; YM-273, 0.1 mg/kg): 7 days
- mean survival time compared with control ([1]; YM-273, 0.4 mg/kg i.p.): substantial improvement over the control
- mean survival time of allograft ([1]; YM-273, 0.4 mg/kg): 24 days
- mean survival time compared with underivatized triptolide [1]: somewhat better than that seen with underivatized triptolide

SMILES: CC(C)[C@]12O[C@H]1[C@@H]1O[C@]13[C@]1(O[C@H]1C[C@H]1C4=C(CC[C@@]13C)C(=O)OC4)[C@@H]2O [Triptolide, triptolide, reference compound]
- CC50 at 24 h [2]: > 12.5 µg/mL
- triptolide formed from triptolide succinate in serum, 15 minutes ([3]; 15 minutes after addition of YM-262, TLC): a new spot corresponding to triptolide had appeared
- triptolide formed from triptolide succinate in serum, 45 minutes ([3]; 45 minutes after addition of YM-262, TLC): the triptolide spot had also disappeared

SMILES: CC(C)C12OC1C1OC13C1(C)CCC4=C(COC4=O)C1CC1OC13C2OC(=O)CCC(=O)O (stereo not shown) [YM-274, Triptolide Succinate Sodium Salt]
- mean survival time of allograft ([1]; YM-274, 0.0837 mg/kg): 10 days
- mean survival time compared with underivatized triptolide ([1]; Succinate Sodium Salt): substantially better

SMILES: CC(C)C12OC1C1OC13C1(C)CCC4=C(COC4=O)C1CC1OC13C2OC(=O)CCC(=O)O (stereo not shown) [YM-262, Triptolide Succinate]
- CC50 at 24 h [2]: > 12.5 µg/mL
- time from beginning of cohabitation to birth of litters [4, 5]: 28 days
- delay of time from cohabitation to birth [4, 5]: 17%
- period of unproductive mating ([4]; 0.04 mg/kg/day i.p.): approximately four-day period of unproductive mating
- time from beginning of cohabitation to birth of litters ([4]; 0.04 mg/kg/day i.p.): 28 days
- delay of time from cohabitation to birth ([4]; 0.04 mg/kg/day i.p.): 17%
- time from cohabitation to birth [4, 6]: 45 days
- delay of recovery of fertility after termination of therapy ([4]; 0.1 mg/kg/day (so in the source) i.p. over 32 days): 21 days
- increase in time from cohabitation to birth [4, 6]: 88%
- time from cohabitation to birth ([4]; 0.13 mg/kg/day i.p.): 45 days
- increase in time from cohabitation to birth ([4]; 0.13 mg/kg/day i.p.): 88%
- time for hydrolysis in blood serum to triptolide [3]: ≤ 15 min
- time for hydrolysis in serum to release free triptolide [3]: less than an hour
- stability in blood serum, 3 minutes ([3]; 3 minutes, TLC): only triptolide succinate was detected by TLC
- stability in blood serum, 15 minutes ([3]; 15 minutes, TLC): the triptolide succinate spot was gone
- stability in blood serum, 3 to 5 minutes ([3]; first 3 to 5 minutes, TLC): most of the triptolide succinate remained
